From paper PMC6009906, “A new nitrobenzoxadiazole-based GSTP1-1 inhibitor with a previously unheard of mechanism of action and high stability” (Journal of Enzyme Inhibition and Medicinal Chemistry, 2017)
pKi: −log10 of the molar value.

Legend:
[1] = target: T1, GSTP1-1 (glutathione transferase P1-1) (Homo sapiens, UniProt P09211); experiment: CDNB-GSH conjugation assay in buffer A, pH […] °C (partial, max […] inhibition; K iapp […] without Triton); also intrinsic protein fluorescence quenching with and without GSH; format: biochemical
T1 sequence (P09211 2-210): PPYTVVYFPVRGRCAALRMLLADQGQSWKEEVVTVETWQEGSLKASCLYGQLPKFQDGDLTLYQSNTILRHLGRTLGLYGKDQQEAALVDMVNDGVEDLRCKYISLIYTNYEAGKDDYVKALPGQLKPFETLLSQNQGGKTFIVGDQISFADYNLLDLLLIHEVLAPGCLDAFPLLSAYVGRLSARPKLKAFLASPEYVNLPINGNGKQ

[2] = target: T1, GSTP1-1 (glutathione transferase P1-1); experiment: CDNB-GSH conjugation assay in buffer B (no detergent), pH […] °C; format: biochemical

pKi [1]	pKi [2]	SMILES
5.41		O=C(OCCCCCCSc1ccc([N+](=O)[O-])c2nonc12)c1ccccc1 [compound 2, 6-((7 nitrobenzo[c][1,2,5]oxadiazol-4-yl)thio)hexyl benzoate]
	6.22	CC(=O)OCCCCCCSc1ccc([N+](=O)[O-])c2nonc12 [compound 3, MC2752]
